Values of other authors in US9326457B2, “Micro layering pest control solution” (DAIRY SOLUTIONS, INC, priority 2013, dated 2016).

Details: natural pyrethrum, degrades very quickly; short duration application

Pyrethrin
half life: about 30 mins
